In PubChem BioAssay (NCI) one finds GI50 and TGI data, which are given here for twelve molecules.

Values joined by “and” are separate entries in the source; they are usually repeats but may differ in a detail not shown here. Equal values may be shown once.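 Method: 48-hour compound exposure of cells in 96-well plates, five concentrations, linear interpolation of endpoints. The concentration for 50% growth inhibition is given as GI50. At the TGI there is no net growth.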

Test systems include BT-549 breast; DMS 273 small cell lung; KM20L2 colon; M19-MEL melanoma; MCF7 breast; MDA-N; P388/ADR leukemia; SN12K1 renal; T-47D breast; XF 498 CNS; RXF-631 renal.
Common to all, as to assay: NCI tumour cell line growth inhibition, 48 h

`CC[C@H]1CN2CCc3cc(OC)c(OC)cc3[C@@H]2C[C@@H]1C[C@H]1NCCc2c1[nH]c1ccc(O)cc21`: the GI50 was 0.558 µM in the experiment on BT-549 breast; 0.0261 µM in the experiment on DMS 273 small cell lung; 0.0317 µM and 0.0549 µM with KM20L2 colon; 0.0164 µM and 0.0241 µM in the experiment with M19-MEL melanoma; 0.0234 µM in the experiment on MDA-N; 0.0233 µM in the experiment with T-47D breast. For the same molecule, the GI50 in the experiment on XF 498 CNS is 0.0415 µM. Also, the TGI was 0.602 µM in the experiment on BT-549 breast; 0.084 µM and 0.024 µM in the experiment with DMS 273 small cell lung; 0.0858 µM and 0.47 µM and 0.241 µM in the experiment on KM20L2 colon; 0.0461 µM and 0.076 µM and < 0.0112 µM with M19-MEL melanoma; 0.137 µM in the experiment with MCF7 breast; 0.0568 µM and 0.182 µM with MDA-N. Further, the TGI with P388/ADR leukemia is more than 100 µM; in the experiment on SN12K1 renal, 2.64 µM; with T-47D breast, 0.0897 µM and 0.0583 µM; in the experiment with XF 498 CNS it was 0.0586 µM and 0.268 µM.
Turning to `Cc1cc(NS(=O)(=O)c2ccc(Nc3c4ccccc4nc4c(C(=O)N5CCN(CCO)CC5)ccc(Cl)c34)cc2)no1`, the TGI in the experiment on DMS 273 small cell lung, with KM20L2 colon, with M19-MEL melanoma, in the experiment on RXF-631 renal and in the experiment on XF 498 CNS was more than 100 µM in each case.
In the case of `COC(=O)/C=C1\CCC(C)O1` (configuration not stated), the TGI with DMS 273 small cell lung, in the experiment on KM20L2 colon, with M19-MEL melanoma, with RXF-631 renal and in the experiment on XF 498 CNS was more than 100 µM each time.
Regarding `CC(C)C(=O)Nc1nc2c(ncn2C2OC(CO)C(O)C2O)c(=O)[nH]1` (configuration not stated), the TGI in the experiment on DMS 273 small cell lung, with KM20L2 colon, in the experiment on M19-MEL melanoma, in the experiment on RXF-631 renal and with XF 498 CNS was more than 100 µM throughout.
`CNS(=O)(=O)NNS(=O)(=O)c1ccc(Br)cc1`: the TGI in the experiment with DMS 273 small cell lung, in the experiment on KM20L2 colon, with M19-MEL melanoma, with RXF-631 renal and with XF 498 CNS was more than 100 µM in each case.
Turning to `CC(=O)O[C@H]1CCC2[C@@H]3CCC4Nc5[nH]ncc5C[C@]4(C)C3CC[C@@]21C` (some centres not stated), the TGI with DMS 273 small cell lung was more than 100 µM; with KM20L2 colon it was more than 100 µM; in the experiment on M19-MEL melanoma, more than 100 µM; with RXF-631 renal it was more than 100 µM; with XF 498 CNS, 87 µM.
Turning to `COC(=O)[C@H]1C=C[C@@H](C)n2c(=O)c3cc4ccccc4cc3c(=O)n21`, the TGI in the experiment with DMS 273 small cell lung, in the experiment on KM20L2 colon, in the experiment on M19-MEL melanoma, in the experiment with RXF-631 renal and in the experiment on XF 498 CNS was more than 100 µM each time.
Take `CC(C)N(C(=O)C12C3C4C1(I)C1C2C3(I)C41C(=O)N(C(C)C)C(C)C)C(C)C` (configuration not stated): the TGI is more than 100 µM in the experiment with DMS 273 small cell lung; more than 100 µM with KM20L2 colon; more than 70.9 µM in the experiment with M19-MEL melanoma; more than 100 µM with RXF-631 renal; more than 100 µM with XF 498 CNS.
With `O=S(=O)(c1ccccc1)C1CN2OC1(S(=O)(=O)c1ccccc1)CC2c1ccc(Br)cc1` (configuration not stated), the TGI in the experiment on DMS 273 small cell lung is more than 100 µM; with KM20L2 colon, more than 100 µM; with M19-MEL melanoma, more than 100 µM; with RXF-631 renal, more than 100 µM; in the experiment with XF 498 CNS, 57.5 µM.
As to `Cc1ccc(S(=O)(=O)c2ccc(N)cc2)cc1`, the TGI in the experiment on DMS 273 small cell lung, with KM20L2 colon, in the experiment with M19-MEL melanoma, in the experiment on RXF-631 renal and with XF 498 CNS was more than 100 µM in each case.
As for `Cc1cc(C)nc(NS(=O)(=O)c2ccc(NC(=O)c3cccc4c(Nc5ccc(S(N)(=O)=O)cc5)c5ccccc5nc34)cc2)n1`, the TGI in the experiment on DMS 273 small cell lung is more than 100 µM; in the experiment with KM20L2 colon, more than 100 µM; with M19-MEL melanoma, 46.5 µM; with RXF-631 renal it was more than 100 µM; in the experiment on XF 498 CNS, 88.2 µM.
Turning to `COC(=O)/C=C/c1c(CC=C(C)C)ncn1C`, the TGI in the experiment on DMS 273 small cell lung is more than 100 µM; in the experiment with KM20L2 colon, more than 65.8 µM; in the experiment on M19-MEL melanoma, more than 100 µM; in the experiment on RXF-631 renal, more than 100 µM; in the experiment on XF 498 CNS, more than 100 µM.
